Several values for one entry are separate records, joined by “and”; a condition that tells them apart may be missing. Equal values may be shown once.
Legend:
[1] = test system: Bcl-XL:LD3 complex (CDH-1); experiment: SPR drug competition assay, Bcl-XL:LD3 (CDH-1) with Drug-1; assay type: binding; conditions: Fig S10d
Experimental: Drug IC50s of disrupting CDH heterodimers were measured on a Biacore 8 K device. 4 µM of LD3 and its variants (LD3_v1-3) or LD6 were mixed with their respective drugs. […] Multiple-cycle injection of the protein-drug complex with different stoichiometry were performed to measure the decrease of maximal RUs (response units at 120 sec). Apparent IC50s were obtained using the inhibition versus response fitting models in prism software (Version 8.3.0).
Apparent IC50s of SPR drug competition assay were calculated using three-parameter nonlinear regression in GraphPad Prism (Version 8.3.0). Representative data of cellular assays are presented as individual values and mean values (bars). n = 3 refers to biological replicates. All IC50/EC50 values of cellular assays (CDH-TF, CDH-GEMS, AIR-TF and AIR-GEMS) reported were calculated using four-parameter nonlinear regression ± s.d. […]
Readouts from the
sensorgrams were extracted at the time point 120 s to calculate the IC50s using a three-parameter

[2] = test system: JAK/STAT pathway SEAP expression in HEK293T cells; experiment: AIR-GEMS ON-switch SEAP assay; conditions: Homo sapiens, HEK-293T, read-out: EC50, AIR-2-GEMS activation by Drug-2
Experimental: We fused the AIR components in the ectodomains of the GEMS and measured SEAP activity as a reporter for drug-triggered activation.
HEK293T cells were maintained in DMEM medium with 10% FBS (Gibco) and Pen/Strep (Thermo Fisher). Cells were maintained and split every two days at around 80% confluence. HEK293T cells were seeded 24 h before transfection, and transfected with the lipofectamine 3000 kit (Thermo Fisher). Plasmids were cotransfected according to the Table S7. For the drug OFF-switch experiments, drugs were added 12 h post transfection and incubated with cells for 24 h before the SEAP detection assay.
Bcl2 mutants were cloned into the AIR-GEMS

Row | Compound | IC50 ([1]; Bcl-Xl:LD3, best-fit, inhibitor vs. response (three parameters)) | logIC50 ([1]; Bcl-Xl:LD3, best-fit, three parameters, Drug-1 in nM) | Bcl-Xl:LD3 response ([1]; Drug-1 0.001 nM) | Bcl-Xl:LD3 response ([1]; Drug-1 0.005 nM) | Bcl-Xl:LD3 response ([1]; Drug-1 0.01 nM) | Bcl-Xl:LD3 response ([1]; Drug-1 0.05 nM) | Bcl-Xl:LD3 response ([1]; Drug-1 0.1 nM) | Bcl-Xl:LD3 response ([1]; Drug-1 0.5 nM) | Bcl-Xl:LD3 response ([1]; Drug-1 1 nM) | Bcl-Xl:LD3 response ([1]; Drug-1 5 nM) | Bcl-Xl:LD3 response ([1]; Drug-1 10 nM) | Bcl-Xl:LD3 response ([1]; Drug-1 50 nM) | Bcl-Xl:LD3 response ([1]; Drug-1 100 nM) | Bcl-Xl:LD3 response ([1]; Drug-1 500 nM) | Bcl-Xl:LD3 response ([1]; Drug-1 1000 nM) | EC50 [2]
1 | CN(C)CC#Cc1ccc(OCCCc2sc(N3CCc4cccc(C(=O)Nc5nc6ccccc6s5)c4C3)nc2C(=O)O)c(F)c1 [Drug-1, A-1155463] | 0.22 nM | -0.658 | 275.326 and 251.306 and 243.642 | 242.985 and 229.287 and 224.833 | 223.576 and 215.113 and 215.946 | 225.211 and 226.402 and 224.55 | 186.039 and 182.298 and 182.078 | 123.883 and 120.417 and 119.693 | 121.627 and 115.582 and 111.718 | 122.215 and 115.477 and 118.457 | 92.0281 and 92.2496 and 88.1833 | 84.1354 and 86.416 and 84.392 | 81.6073 and 77.884 and 79.2329 | 65.1408 and 62.8874 and 62.5965 | 42.6601 and 38.7292 and 40.0074 | 
2 | CC1(C)CCC(CN2CCN(c3ccc(C(=O)NS(=O)(=O)c4ccc(NCC5CCOCC5)c([N+](=O)[O-])c4)c(Oc4cnc5[nH]ccc5c4)c3)CC2)=C(c2ccc(Cl)cc2)C1 [Drug-2, Venetoclax] |  |  |  |  |  |  |  |  |  |  |  |  |  |  |  | 0.5 nM

From publication PMC8486872, “A rational blueprint for the design of chemically-controlled protein switches” (Nature Communications, 2021)
